# Measured values published in the kinase profiling compilation of Christmann-Franck et al. (2016).
# How the values were obtained:
# Assay in all cases: KINOMEscan competition binding
# Details in all cases: compound 0.5 µM
# [1] = target: CAMK2D (human) (UniProt Q13557)
# [2] = target: CDK13 (human) (UniProt Q14004)
# [3] = target: CDK3 (human) (UniProt Q00526)
# [4] = target: CDK5 (human) (UniProt Q00535)
# [5] = target: CDKL3 (human) (UniProt Q8IVW4)
# [6] = target: CSNK1E (human) (UniProt P49674)
# [7] = target: DAPK2 (human) (UniProt Q9UIK4)
# [8] = target: EPHA1 (human) (UniProt P21709)
# [9] = target: EPHA2 (human) (UniProt P29317)
# [10] = target: FRK (human) (UniProt P42685)
# FRK (human), sequence (P42685 whole entry, looked up): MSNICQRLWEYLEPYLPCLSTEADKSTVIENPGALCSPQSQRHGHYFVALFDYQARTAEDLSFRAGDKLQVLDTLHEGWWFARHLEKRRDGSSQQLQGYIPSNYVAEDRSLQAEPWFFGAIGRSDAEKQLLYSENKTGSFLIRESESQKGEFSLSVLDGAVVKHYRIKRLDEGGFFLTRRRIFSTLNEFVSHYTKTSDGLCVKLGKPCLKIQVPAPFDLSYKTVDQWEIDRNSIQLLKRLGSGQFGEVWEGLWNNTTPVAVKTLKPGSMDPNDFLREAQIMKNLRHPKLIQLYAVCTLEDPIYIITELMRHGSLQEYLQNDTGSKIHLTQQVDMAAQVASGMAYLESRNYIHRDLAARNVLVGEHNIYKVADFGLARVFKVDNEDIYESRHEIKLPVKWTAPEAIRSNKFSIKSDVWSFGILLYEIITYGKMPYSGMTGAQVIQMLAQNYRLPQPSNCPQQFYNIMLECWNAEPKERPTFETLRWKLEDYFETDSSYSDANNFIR
# [11] = target: HIPK2 (human) (UniProt Q9H2X6)
# [12] = target: HIPK3 (human) (UniProt Q9H422)
# [13] = target: IKBKB (human) (UniProt O14920)
# [14] = target: INSR (human) (UniProt P06213)
# [15] = target: LYN (human) (UniProt P07948)
# [16] = target: MAP2K2 (human) (UniProt P36507)
# [17] = target: MAP4K4 (human) (UniProt O95819)
# [18] = target: MAPK10 (human) (UniProt P53779)
# [19] = target: MARK1 (human) (UniProt Q9P0L2)
# [20] = target: MERTK (human) (UniProt Q12866)
# [21] = target: NEK7 (human) (UniProt Q8TDX7)
# NEK7 (human), sequence (Q8TDX7 whole entry, looked up): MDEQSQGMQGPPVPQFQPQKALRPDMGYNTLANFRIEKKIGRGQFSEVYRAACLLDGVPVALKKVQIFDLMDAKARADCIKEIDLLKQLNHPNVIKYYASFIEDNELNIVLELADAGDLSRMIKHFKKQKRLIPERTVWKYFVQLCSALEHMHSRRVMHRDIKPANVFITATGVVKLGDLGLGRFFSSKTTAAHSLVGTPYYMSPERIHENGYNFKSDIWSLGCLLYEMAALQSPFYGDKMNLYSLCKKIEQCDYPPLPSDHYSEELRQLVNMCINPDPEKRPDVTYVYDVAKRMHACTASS
# [22] = target: PAK1 (human) (UniProt Q13153)
# [23] = system: PIK3CA (human), P42336 [C420R]
# [24] = system: PIK3CA (human), P42336 [M1043I]
# [25] = target: PIP5K1A (human) (UniProt Q99755)
# [26] = target: PKN1 (human) (UniProt Q16512)
# [27] = target: PLK2 (human) (UniProt Q9NYY3)
# [28] = target: PRKCQ (human) (UniProt Q04759)
# [29] = target: PRKD2 (human) (UniProt Q9BZL6)
# PRKD2 (human), sequence (Q9BZL6 whole entry, looked up): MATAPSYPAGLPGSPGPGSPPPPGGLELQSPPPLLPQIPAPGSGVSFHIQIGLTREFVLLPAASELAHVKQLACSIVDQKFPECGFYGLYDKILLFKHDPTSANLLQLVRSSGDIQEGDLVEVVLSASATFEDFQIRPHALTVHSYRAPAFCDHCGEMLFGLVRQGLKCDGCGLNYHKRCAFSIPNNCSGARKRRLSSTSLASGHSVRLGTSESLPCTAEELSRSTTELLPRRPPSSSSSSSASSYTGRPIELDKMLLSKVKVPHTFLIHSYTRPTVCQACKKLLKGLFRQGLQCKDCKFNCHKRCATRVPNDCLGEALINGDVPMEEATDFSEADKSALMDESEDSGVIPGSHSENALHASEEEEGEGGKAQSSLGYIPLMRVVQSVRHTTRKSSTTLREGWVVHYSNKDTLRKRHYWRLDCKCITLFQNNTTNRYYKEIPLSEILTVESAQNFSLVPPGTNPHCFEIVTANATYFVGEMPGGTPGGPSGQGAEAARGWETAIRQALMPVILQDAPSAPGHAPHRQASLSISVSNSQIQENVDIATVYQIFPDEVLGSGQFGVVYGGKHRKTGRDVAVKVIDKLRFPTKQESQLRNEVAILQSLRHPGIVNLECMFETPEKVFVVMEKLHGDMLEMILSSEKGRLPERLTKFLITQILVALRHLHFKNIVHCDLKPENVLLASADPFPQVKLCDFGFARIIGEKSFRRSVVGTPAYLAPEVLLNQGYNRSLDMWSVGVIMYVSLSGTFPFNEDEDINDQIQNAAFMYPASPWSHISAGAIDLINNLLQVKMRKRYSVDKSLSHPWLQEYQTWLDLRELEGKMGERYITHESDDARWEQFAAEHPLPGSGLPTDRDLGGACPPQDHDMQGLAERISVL
# [30] = target: PRKX (human) (UniProt P51817)
# [31] = target: PTK2 (human) (UniProt Q05397)
# [32] = target: RPS6KB1 (human) (UniProt P23443)
# [33] = target: STK25 (human) (UniProt O00506)
# STK25 (human), sequence (O00506 whole entry, looked up): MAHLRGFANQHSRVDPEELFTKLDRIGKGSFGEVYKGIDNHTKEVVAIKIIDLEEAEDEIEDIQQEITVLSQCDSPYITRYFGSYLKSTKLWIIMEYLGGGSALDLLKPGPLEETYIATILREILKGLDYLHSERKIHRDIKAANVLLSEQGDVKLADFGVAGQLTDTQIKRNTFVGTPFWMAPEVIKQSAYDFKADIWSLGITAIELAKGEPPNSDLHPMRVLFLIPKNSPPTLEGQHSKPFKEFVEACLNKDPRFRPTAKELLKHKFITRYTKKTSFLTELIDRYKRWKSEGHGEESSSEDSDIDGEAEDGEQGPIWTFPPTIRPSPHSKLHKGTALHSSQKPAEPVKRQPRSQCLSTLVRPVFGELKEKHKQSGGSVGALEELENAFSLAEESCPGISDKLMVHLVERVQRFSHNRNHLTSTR
# [34] = target: STK36 (human) (UniProt Q9NRP7)
# STK36 (human), sequence (Q9NRP7 whole entry, looked up): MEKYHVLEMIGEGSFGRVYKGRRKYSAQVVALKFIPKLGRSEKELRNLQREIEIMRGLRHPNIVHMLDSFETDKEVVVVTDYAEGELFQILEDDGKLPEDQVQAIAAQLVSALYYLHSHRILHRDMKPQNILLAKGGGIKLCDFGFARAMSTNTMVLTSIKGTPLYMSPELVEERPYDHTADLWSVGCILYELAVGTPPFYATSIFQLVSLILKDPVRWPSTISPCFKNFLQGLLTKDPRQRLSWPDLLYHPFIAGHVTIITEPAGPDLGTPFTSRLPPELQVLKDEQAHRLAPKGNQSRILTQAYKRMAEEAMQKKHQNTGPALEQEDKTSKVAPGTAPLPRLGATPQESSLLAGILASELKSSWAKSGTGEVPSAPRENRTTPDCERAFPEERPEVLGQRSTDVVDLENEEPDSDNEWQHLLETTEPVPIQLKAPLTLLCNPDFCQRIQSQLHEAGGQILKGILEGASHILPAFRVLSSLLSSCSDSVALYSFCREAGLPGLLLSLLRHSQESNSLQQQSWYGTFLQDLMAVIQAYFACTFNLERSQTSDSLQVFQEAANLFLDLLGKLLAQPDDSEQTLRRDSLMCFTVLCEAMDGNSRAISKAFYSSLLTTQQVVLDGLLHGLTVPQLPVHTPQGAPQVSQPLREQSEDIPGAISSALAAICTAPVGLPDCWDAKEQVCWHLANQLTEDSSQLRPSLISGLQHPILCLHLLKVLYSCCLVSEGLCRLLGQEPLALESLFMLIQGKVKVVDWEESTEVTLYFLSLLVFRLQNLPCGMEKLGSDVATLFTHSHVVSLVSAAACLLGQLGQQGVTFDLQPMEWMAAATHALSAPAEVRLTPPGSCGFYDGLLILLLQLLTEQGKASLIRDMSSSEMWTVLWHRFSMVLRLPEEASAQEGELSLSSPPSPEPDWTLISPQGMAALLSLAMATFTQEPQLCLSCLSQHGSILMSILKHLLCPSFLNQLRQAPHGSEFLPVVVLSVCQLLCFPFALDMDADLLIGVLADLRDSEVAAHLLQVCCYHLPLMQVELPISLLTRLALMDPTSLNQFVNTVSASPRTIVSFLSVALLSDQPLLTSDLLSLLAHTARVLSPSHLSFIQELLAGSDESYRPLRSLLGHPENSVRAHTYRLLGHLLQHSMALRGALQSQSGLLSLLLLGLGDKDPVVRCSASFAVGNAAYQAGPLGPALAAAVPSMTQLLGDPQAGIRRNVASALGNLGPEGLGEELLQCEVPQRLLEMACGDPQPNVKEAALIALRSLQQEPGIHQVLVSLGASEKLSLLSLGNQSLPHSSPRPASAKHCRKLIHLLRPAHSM
# [35] = target: STK39 (human) (UniProt Q9UEW8)
# [36] = target: TAOK1 (human) (UniProt Q7L7X3)
# [37] = target: TNIK (human) (UniProt Q9UKE5)
# TNIK (human), sequence (Q9UKE5 whole entry, looked up): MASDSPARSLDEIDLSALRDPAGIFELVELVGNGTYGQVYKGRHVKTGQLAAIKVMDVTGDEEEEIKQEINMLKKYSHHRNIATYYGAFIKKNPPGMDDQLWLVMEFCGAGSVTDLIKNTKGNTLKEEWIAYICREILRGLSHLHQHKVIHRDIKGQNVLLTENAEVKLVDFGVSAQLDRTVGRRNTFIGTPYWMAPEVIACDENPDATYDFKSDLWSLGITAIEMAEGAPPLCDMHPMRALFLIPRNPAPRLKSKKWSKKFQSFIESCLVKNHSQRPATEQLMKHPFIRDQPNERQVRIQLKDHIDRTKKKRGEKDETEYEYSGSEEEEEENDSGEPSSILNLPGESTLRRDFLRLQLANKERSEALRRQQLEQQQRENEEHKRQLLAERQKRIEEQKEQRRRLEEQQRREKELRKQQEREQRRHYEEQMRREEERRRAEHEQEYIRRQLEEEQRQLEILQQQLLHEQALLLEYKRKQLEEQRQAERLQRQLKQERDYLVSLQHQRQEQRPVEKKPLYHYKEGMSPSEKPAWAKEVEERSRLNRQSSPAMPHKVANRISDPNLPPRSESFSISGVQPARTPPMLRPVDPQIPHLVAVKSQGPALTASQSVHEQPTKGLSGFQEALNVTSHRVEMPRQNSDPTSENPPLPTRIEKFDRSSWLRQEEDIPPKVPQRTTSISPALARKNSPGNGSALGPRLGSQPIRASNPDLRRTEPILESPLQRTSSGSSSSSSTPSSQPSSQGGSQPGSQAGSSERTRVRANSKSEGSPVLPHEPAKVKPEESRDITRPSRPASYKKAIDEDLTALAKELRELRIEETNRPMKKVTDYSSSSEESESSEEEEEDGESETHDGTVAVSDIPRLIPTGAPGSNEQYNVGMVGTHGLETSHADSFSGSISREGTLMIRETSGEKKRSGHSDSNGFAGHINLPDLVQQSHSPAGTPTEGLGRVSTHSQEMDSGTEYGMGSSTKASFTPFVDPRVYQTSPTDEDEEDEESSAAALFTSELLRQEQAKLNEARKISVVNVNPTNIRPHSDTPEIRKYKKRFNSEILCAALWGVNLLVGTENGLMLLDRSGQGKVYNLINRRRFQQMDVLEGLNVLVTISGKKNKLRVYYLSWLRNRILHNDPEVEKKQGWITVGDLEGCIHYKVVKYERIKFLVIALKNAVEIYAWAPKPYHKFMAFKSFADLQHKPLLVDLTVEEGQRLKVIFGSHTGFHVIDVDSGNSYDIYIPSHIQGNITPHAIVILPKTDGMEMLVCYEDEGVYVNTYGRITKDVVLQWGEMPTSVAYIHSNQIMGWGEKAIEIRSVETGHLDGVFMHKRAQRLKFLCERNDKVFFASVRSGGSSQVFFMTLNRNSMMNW
# [38] = target: TRPM6 (human) (UniProt Q9BX84)
# [39] = target: TSSK1B (human) (UniProt Q9BXA7)
# [40] = target: TYK2 JH1 catalytic (human) (UniProt P29597)
# [41] = target: YES1 (human) (UniProt P07947)
# [42] = target: ZAP70 (human) (UniProt P43403)
# CDK5 (human), sequence (Q00535 whole entry, looked up): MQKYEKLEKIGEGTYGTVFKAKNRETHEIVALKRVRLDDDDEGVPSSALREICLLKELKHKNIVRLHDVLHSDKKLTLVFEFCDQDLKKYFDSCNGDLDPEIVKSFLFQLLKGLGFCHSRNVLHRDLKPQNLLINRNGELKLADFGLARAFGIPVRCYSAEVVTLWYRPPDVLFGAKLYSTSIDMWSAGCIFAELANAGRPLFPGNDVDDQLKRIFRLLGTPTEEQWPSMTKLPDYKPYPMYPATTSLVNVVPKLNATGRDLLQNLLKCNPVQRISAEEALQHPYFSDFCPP
structure (smiles),measurement,setting,value
Cn1c2ccccc2c2c3c(c4c5ccccc5n(CCC#N)c4c21)CNC3=O,"kinase still bound, per cent of control",[1],33%
same,"kinase still bound, per cent of control",[2],100%
same,"kinase still bound, per cent of control",[3],75%
same,"kinase still bound, per cent of control",[4],61%
same,"kinase still bound, per cent of control",[5],91%
same,"kinase still bound, per cent of control",[6],100%
same,"kinase still bound, per cent of control",[7],61%
same,"kinase still bound, per cent of control",[8],97%
same,"kinase still bound, per cent of control",[9],87%
same,"kinase still bound, per cent of control",[10],84%
same,"kinase still bound, per cent of control",[11],15%
same,"kinase still bound, per cent of control",[12],12%
same,"kinase still bound, per cent of control",[13],50%
same,"kinase still bound, per cent of control",[14],84%
same,"kinase still bound, per cent of control",[15],100%
same,"kinase still bound, per cent of control",[16],61%
same,"kinase still bound, per cent of control",[17],2.2%
same,"kinase still bound, per cent of control",[18],20%
same,"kinase still bound, per cent of control",[19],64%
same,"kinase still bound, per cent of control",[20],89%
same,"kinase still bound, per cent of control",[21],100%
same,"kinase still bound, per cent of control",[22],84%
same,"kinase still bound, per cent of control",[23],46%
same,"kinase still bound, per cent of control",[24],93%
same,"kinase still bound, per cent of control",[25],1.6%
same,"kinase still bound, per cent of control",[26],9.4%
same,"kinase still bound, per cent of control",[27],100%
same,"kinase still bound, per cent of control",[28],59%
same,"kinase still bound, per cent of control",[29],4.8%
same,"kinase still bound, per cent of control",[30],53%
same,"kinase still bound, per cent of control",[31],73%
same,"kinase still bound, per cent of control",[32],23%
same,"kinase still bound, per cent of control",[33],100%
same,"kinase still bound, per cent of control",[34],100%
same,"kinase still bound, per cent of control",[35],76%
same,"kinase still bound, per cent of control",[36],8%
same,"kinase still bound, per cent of control",[37],0.3%
same,"kinase still bound, per cent of control",[38],81%
same,"kinase still bound, per cent of control",[39],82%
same,"kinase still bound, per cent of control",[40],0.6%
same,"kinase still bound, per cent of control",[41],96%
same,"kinase still bound, per cent of control",[42],35%
